Patent publication US20090253693A1, “2H-BENZO[b][1,4]OXAZIN-3(4H)-ONE DERIVATIVES FOR USE AS STEAROYL CoA DESATURASE INHIBITORS” (priority 2008, published 2009)
Counter-ions that a name gives are not always drawn.

Biological target: T1, SCD (stearoyl-CoA desaturase) (Rattus norvegicus, UniProt P07308)
T1 construct: The rat liver microsomes were collected according to the procedure described in Ozols (1990) Methods Enzm, 182:225; from tissue; host or cells: liver microsomes of male Sprague Dawley rats after induction with a carbohydrate-rich diet
T1 sequence (P07308 1-358): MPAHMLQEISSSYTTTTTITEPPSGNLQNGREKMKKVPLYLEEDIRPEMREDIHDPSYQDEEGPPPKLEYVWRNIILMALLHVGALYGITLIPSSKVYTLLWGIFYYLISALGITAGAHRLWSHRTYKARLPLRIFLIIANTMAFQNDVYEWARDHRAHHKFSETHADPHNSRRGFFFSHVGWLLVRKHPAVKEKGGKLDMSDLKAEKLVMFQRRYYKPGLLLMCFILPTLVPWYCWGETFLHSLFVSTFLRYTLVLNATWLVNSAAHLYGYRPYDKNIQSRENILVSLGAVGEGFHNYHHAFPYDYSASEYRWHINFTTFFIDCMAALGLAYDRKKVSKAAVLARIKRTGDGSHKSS
Assay: SCD assay with rat liver microsomes ([3H]stearoyl CoA desaturation, adapted from Talamo and Bloch)
Type: biochemical
Conditions: rat liver microsomes 0.2 mg/ml final, 30 min preincubation, stearoyl CoA substrate, 45 min, room temperature
Excerpt: The identification of compounds of the invention as SCD inhibitors was readily accomplished using the SCD enzyme and microsomal assay procedure described in Talamo and Bloch (1969) Analytical Biochemistry 29:300-304.
The rat liver microsomes were collected according to the procedure described in Ozols (1990) Methods Enzm, 182:225.
Male Sprague Dawley Rats were placed on regimented fasting protocol for one week to stimulate SCD enzymatic activity. 48-hour periods were alternated between feeding and fasting to induce and down-regulate SCD activity with SCD activity being induced via carbohydrate rich diet prior to liver perfusion and collection.
The supernatant was then aspirated off and the collected microsomal pellet washed in 25 mL of Glycerol PBS (1× PBS 7.4, 20% Glycerol) and resuspended in 4-5 volumes of Glycerol PBS.
SCD was determined in the desaturase assay buffer. This assay buffer contained 0.1 M Tris buffer, pH 7.2, 2 mM NADH, 4.8 mM ATP, 0.5 mM CoA, 4.8 mM MgCl2, and 0.1% BSA.
The Procedure for the SCD Assay (Adapted from Talamo and Bloch (1969) Analytical Biochemistry 29:300-304)
1 μl of each compound of Formula I was added to an assay plate by a low volume (0.5-10 μL) multichannel pipette. A DMSO control was also prepared. The microsomes were quickly thawed and added to assay buffer so that a concentration of 0.4 mg/ml was achieved (0.2 mg/ml assay final). 50 μl of the microsome suspension in assay buffer was then added into each well in the compound assay plate, the plate was covered, and the microsomes preincubated with the compounds for 30 minutes on the orbital shaker, 50-75 rpm, at room temperature.
After preincubation, the reaction was initiated by the addition of 50 μl of substrate solution (20 μM Stearoyl CoA, [3H]Stearoyl CoA, 74nCi) to the preincubated microsomes/compound suspensions in MilliQ (Millipore) H2O. The reaction mixtures were then incubated for 45 minutes on the orbital shaker at 50-75 rpm at room temperature.
The reaction was terminated by the addition of 10 μl of 21% trichloroacetic acid (TCA) to the reaction mixture followed incubation on the orbital shaker for 30 minutes at 50-75 rpm at room temperature followed by centrifugation for 5 minutes at 3700 rpm.
50 μl of a 6% Bio-Bead suspension in H2O was added to the reaction mixture and the assay plate was sealed. The Bio-Bead mixture was incubated on the orbital shaker for 1 hour, 100-150 rpm at room temperature, and then the mixture was centrifuged at 2000 g for 5 minutes to pellet the Bio-Beads.
25 μl of the supernatant was harvested from each well and transferred to a detection plate. 100 μl of OptiPhase SuperMix scintillation cocktail (containing sufficient NaOH to neutralize the TCA) was added and the solutions mixed by vigorous shaking (300-400 rpm) for 5 minutes at room temperature.

Compound | IC50
CC(=O)NCCN1C(=O)COc2ccc(NCc3ccc(Cl)c(Cl)c3)cc21 [Compound 3, N-(2-(6-(3,4-dichlorobenzylamino)-3-oxo-2H-benzo[b][1,4]oxazin-4(3H)-yl)ethyl)acetamide hydrochloride] | 10.7 nM
CC1Oc2ccc(NCc3ccc(Cl)c(C(F)(F)F)c3)cc2N(CCNC(=O)CO)C1=O (racemic) [Compound 12, (±)-N-(2-(6-(4-chloro-3-(trifluoromethyl)benzylamino)-2-methyl-3-oxo-2H-benzo[b][1,4]oxazin-4(3H)-yl)ethyl)-2-hydroxyacetamide] | 1 to 10 nM
CC(=O)NCCN1C(=O)C(C)Oc2ccc(NCc3ccc(Cl)c(Cl)c3)cc21 (racemic) [Compound 9, (±)-N-(2-(6-(3,4-dichlorobenzylamino)-2-methyl-3-oxo-2H-benzo[b][1,4]oxazin-4(3H)-yl)ethyl)acetamide] | 1 to 10 nM
O=C1COc2ccc(NCc3ccc(Cl)c(Cl)c3)cc2N1CCOc1ccccc1 [Compound 4, 6-(3,4-dichlorobenzylamino)-4-(2-phenoxyethyl)-2H-benzo[b][1,4]oxazin-3(4H)-one] | 22200 nM
O=C(NCCN1C(=O)COc2ccc(NCc3ccc(Cl)c(Cl)c3)cc21)c1ccccc1 [Compound 7, N-(2-(6-(3,4-dichlorobenzylamino)-3-oxo-2H-benzo[b][1,4]oxazin-4(3H)-yl)ethyl)benzamide] | 2.52 nM

Next, values leading:

IC50 | Compound
53.5 nM | NC(=O)CCN1C(=O)COc2ccc(NCc3ccc(Cl)c(Cl)c3)cc21 [Compound 1, 3-(6-(3,4-dichlorobenzylamino)-3-oxo-2H-benzo[b][1,4]oxazin-4(3H)-yl)propanamide]
1 to 10 nM | CC(=O)NCCN1C(=O)C(C)Oc2ccc(NCc3ccc(Cl)c(C(F)(F)F)c3)cc21 (racemic) [Compound 10, (±)-N-(2-(6-(4-chloro-3-(trifluoromethyl)benzylamino)-2-methyl-3-oxo-2H-benzo[b][1,4]oxazin-4(3H)-yl)ethyl)acetamide]
1.39 nM | O=C(CO)NCCN1C(=O)COc2ccc(NCc3ccc(Cl)c(Cl)c3)cc21 [Compound 8, N-(2-(6-(3,4-dichlorobenzylamino)-3-oxo-2H-benzo[b][1,4]oxazin-4(3H)-yl)ethyl)-2-hydroxyacetamide hydrochloride]
14900 nM | CC(=O)NCCN1C(=O)COc2ccc(NCc3ccccc3)cc21 [Compound 2, N-(2-(6-(benzylamino)-3-oxo-2H-benzo[b][1,4]oxazin-4(3H)-yl)ethyl)acetamide hydrochloride]
80 nM | CC1Oc2ccc(NCc3ccc(Cl)c(Cl)c3)cc2N(CCNC(=O)CO)C1=O (racemic) [Compound 11, (±)-N-(2-(6-(3,4-dichlorobenzylamino)-2-methyl-3-oxo-2H-benzo[b][1,4]oxazin-4(3H)-yl)ethyl)-2-hydroxyacetamide]
4.87 nM | CC(=O)NCCN1C(=O)COc2ccc(NCc3ccc(Cl)c(C(F)(F)F)c3)cc21 [Compound 5, N-(2-(6-(4-chloro-3-(trifluoromethyl)benzylamino)-3-oxo-2H-benzo[b][1,4]oxazin-4(3H)-yl)ethyl)acetamide hydrochloride]
7.8 nM | CC(=O)NCCN1C(=O)COc2ccc(NCc3ccc(F)c(C(F)(F)F)c3)cc21 [Compound 6, N-(2-(6-(4-fluoro-3-(trifluoromethyl)benzylamino)-3-oxo-2H-benzo[b][1,4]oxazin-4(3H)-yl)ethyl)acetamide hydrochloride]
